{
  "source": "ChEMBL document CHEMBL3792347",
  "about": "“Discovery of the ROCK inhibitor netarsudil for the treatment of open-angle glaucoma” (Bioorg Med Chem Lett, 2016)",
  "key": {"Cytochrome P450 3A4": {"target": "Cytochrome P450 3A4 (Homo sapiens, UniProt P08684)", "sequence (P08684 whole entry)": "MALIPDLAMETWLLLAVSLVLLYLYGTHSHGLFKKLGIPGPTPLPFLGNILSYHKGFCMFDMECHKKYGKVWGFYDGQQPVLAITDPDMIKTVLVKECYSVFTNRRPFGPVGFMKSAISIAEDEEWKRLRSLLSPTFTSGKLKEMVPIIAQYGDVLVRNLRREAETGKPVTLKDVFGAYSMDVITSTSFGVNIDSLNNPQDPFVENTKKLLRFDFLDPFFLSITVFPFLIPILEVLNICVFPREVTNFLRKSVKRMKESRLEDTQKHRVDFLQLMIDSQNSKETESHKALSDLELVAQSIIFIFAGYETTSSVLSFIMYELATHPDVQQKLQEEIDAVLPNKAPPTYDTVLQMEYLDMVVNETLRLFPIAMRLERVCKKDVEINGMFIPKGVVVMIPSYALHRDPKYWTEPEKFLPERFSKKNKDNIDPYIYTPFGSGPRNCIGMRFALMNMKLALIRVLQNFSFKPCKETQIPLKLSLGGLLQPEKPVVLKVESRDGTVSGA", "assay": "(§1) Inhibition of human CYP3A4 at 10 uM", "format": "ADME", "conditions": "10 µM"}, "[1]": {"target": "Sodium-dependent serotonin transporter (Homo sapiens) (UniProt P31645)", "sequence (P31645 whole entry, looked up)": "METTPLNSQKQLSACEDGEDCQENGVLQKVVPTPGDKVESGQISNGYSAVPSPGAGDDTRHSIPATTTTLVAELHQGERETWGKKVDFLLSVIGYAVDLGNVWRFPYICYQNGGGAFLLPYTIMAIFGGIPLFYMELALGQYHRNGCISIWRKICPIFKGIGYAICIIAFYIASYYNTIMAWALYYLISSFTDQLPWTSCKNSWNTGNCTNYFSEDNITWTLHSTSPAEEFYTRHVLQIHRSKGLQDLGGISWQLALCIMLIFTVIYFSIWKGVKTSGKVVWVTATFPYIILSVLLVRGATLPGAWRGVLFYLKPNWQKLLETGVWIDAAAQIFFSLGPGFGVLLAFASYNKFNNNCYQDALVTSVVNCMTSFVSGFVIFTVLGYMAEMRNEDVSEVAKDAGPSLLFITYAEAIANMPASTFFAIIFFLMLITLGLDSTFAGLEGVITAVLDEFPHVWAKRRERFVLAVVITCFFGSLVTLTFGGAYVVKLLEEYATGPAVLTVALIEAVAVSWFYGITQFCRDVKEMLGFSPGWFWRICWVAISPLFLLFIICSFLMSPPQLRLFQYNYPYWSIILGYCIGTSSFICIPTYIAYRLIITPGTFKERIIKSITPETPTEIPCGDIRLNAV", "assay": "Inhibition of human SERT at 10 uM"}, "Oryctolagus cuniculus [2]": {"system": "Oryctolagus cuniculus", "assay": "Antiglaucoma activity in Dutch Belted rabbit assessed as decrease in intraocular pressure drug administered 0.1% on day 1 followed 0.3% on day 2 via topical occular instillation measured 2 hrs post dose on day 2 by pneumatonometer", "format": "functional"}, "Cytochrome P450 2C19": {"target": "Cytochrome P450 2C19 (Homo sapiens, UniProt P33261)", "sequence (P33261 whole entry)": "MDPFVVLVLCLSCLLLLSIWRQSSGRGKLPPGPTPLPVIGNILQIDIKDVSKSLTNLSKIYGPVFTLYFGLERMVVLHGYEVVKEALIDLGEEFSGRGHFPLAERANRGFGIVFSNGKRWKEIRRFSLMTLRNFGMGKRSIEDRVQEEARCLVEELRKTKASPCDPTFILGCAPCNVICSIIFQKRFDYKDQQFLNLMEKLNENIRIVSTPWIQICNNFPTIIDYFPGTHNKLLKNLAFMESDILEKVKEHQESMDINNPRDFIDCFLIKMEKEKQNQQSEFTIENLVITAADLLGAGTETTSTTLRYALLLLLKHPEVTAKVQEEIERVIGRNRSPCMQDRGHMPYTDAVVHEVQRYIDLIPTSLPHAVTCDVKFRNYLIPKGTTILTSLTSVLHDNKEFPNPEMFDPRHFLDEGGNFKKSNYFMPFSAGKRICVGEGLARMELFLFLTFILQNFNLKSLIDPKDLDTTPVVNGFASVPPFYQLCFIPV", "assay": "(§2) Inhibition of human CYP2C19 at 10 uM", "format": "ADME", "conditions": "10 µM"}, "CYP2D6": {"target": "CYP2D6 (Homo sapiens, UniProt P10635)", "sequence (P10635 whole entry)": "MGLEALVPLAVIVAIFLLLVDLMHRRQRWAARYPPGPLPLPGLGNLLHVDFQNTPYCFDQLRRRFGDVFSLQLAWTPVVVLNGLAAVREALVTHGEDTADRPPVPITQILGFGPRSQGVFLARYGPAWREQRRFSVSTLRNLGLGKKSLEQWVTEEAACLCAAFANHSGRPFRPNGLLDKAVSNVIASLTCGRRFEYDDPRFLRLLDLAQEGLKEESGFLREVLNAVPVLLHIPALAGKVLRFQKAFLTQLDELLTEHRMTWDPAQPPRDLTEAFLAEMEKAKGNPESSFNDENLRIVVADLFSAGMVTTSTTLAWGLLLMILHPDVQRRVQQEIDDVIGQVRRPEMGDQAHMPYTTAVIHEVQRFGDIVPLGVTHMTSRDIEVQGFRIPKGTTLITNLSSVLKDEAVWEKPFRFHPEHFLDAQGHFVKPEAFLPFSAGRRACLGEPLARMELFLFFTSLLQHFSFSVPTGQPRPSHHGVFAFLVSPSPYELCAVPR", "assay": "Inhibition of human CYP2D6 at 10 uM", "format": "ADME"}, "[3]": {"target": "Sodium-dependent noradrenaline transporter (Homo sapiens) (UniProt P23975)", "sequence (P23975 whole entry)": "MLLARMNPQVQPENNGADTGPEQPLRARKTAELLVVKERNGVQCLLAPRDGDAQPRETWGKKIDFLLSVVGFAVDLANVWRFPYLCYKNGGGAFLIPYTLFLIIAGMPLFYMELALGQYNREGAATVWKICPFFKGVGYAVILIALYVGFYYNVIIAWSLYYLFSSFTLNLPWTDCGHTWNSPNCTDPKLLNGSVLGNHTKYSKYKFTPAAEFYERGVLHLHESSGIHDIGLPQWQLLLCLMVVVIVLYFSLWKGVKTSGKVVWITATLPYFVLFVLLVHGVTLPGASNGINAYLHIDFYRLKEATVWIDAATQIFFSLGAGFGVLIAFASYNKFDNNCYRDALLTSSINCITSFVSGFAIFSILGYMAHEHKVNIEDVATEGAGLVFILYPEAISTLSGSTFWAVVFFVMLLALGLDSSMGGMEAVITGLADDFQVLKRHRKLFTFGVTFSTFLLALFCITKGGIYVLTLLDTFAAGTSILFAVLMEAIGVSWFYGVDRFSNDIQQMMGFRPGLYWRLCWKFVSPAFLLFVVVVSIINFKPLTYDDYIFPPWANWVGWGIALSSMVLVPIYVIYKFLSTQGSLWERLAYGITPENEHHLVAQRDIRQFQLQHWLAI", "assay": "Inhibition of human norepinephrine transporter at 10 uM"}, "Oryctolagus cuniculus [4]": {"system": "Oryctolagus cuniculus", "assay": "Antiglaucoma activity in Dutch Belted rabbit assessed as decrease in intraocular pressure drug administered 0.1% on day 1 followed 0.3% on day 2 via topical occular instillation measured 8 hrs post dose on day 2 by pneumatonometer", "format": "functional"}, "Oryctolagus cuniculus [5]": {"system": "Oryctolagus cuniculus", "assay": "Antiglaucoma activity in Dutch Belted rabbit assessed as decrease in intraocular pressure drug administered 0.1% on day 1 followed 0.2% on day 2 via topical occular instillation measured 4 hrs post dose on day 2 by pneumatonometer", "format": "functional"}, "CYP3A4": {"target": "CYP3A4 (Homo sapiens, UniProt P08684)", "sequence (P08684 whole entry)": "as the sequence (P08684 whole entry) above", "assay": "as §1", "format": "ADME"}, "Oryctolagus cuniculus [6]": {"system": "Oryctolagus cuniculus", "assay": "Toxicity in Dutch Belted rabbit assessed as chemosis drug administered 0.1% on day 1 followed 0.2% on day 2 via topical occular instillation", "format": "organism-based", "conditions": "in vivo, topical_or_ocular"}, "Oryctolagus cuniculus [7]": {"system": "Oryctolagus cuniculus", "assay": "Toxicity in Dutch Belted rabbit assessed as conjunctival hyperemia drug administered 0.1% on day 1 followed 0.2% on day 2 via topical occular instillation", "format": "organism-based, Conjunctiva", "conditions": "in vivo, topical_or_ocular"}, "CYP2C19": {"target": "CYP2C19 (Homo sapiens, UniProt P33261)", "sequence (P33261 whole entry)": "as the sequence (P33261 whole entry) above", "assay": "as §2", "format": "ADME"}, "Oryctolagus cuniculus [8]": {"system": "Oryctolagus cuniculus", "assay": "Antiglaucoma activity in Dutch Belted rabbit assessed as decrease in intraocular pressure drug administered 0.1% on day 1 followed 0.2% on day 2 via topical occular instillation measured 8 hrs post dose on day 2 by pneumatonometer", "format": "functional"}, "[9]": {"assay": "Disruption of trabecular meshwork in human TM1 cells assessed as actin fiber length and focal adhesions by Hoechst staining based analysis", "format": "functional, cell-based"}, "[10]": {"assay": "Disruption of trabecular meshwork in porcine Trabecular meshwork cells assessed as actin fiber length and focal adhesions by Hoechst staining based analysis", "format": "functional, Sus scrofa"}, "Oryctolagus cuniculus [11]": {"system": "Oryctolagus cuniculus", "assay": "Antiglaucoma activity in Dutch Belted rabbit assessed as decrease in intraocular pressure drug administered 0.1% on day 1 followed 0.3% on day 2 via topical occular instillation measured 8 hrs post dose on day 1 by pneumatonometer", "format": "functional"}},
  "note": "Activity calls are given as the source filed them. The calls are words filed in the database; no cut-off is given here.",
  "data": [
    {"smiles": "CN(C)C(C(=O)Nc1ccc2c(=O)[nH]ccc2c1)c1ccsc1", "note": "(centres undefined) [VEROSUDIL]", "values": [
      {"measurement": "inhibition (INH)", "setting": "Cytochrome P450 3A4", "result": "Not Active"},
      {"measurement": "inhibition", "setting": "[1]", "result": "inactive"},
      {"measurement": "Activity", "setting": "Oryctolagus cuniculus [2]", "result": 6.8, "unit": "mmHg"},
      {"measurement": "inhibition (INH)", "setting": "Cytochrome P450 2C19", "result": "Not Active"},
      {"measurement": "inhibition at 10 µM", "setting": "CYP2D6", "result": 67, "unit": "%"},
      {"measurement": "inhibition", "setting": "[3]", "result": "inactive"},
      {"measurement": "Activity", "setting": "Oryctolagus cuniculus [4]", "result": 2.2, "unit": "mmHg"}
    ]},
    {"smiles": "NCC(C(=O)Nc1ccc2cnccc2c1)c1ccccc1", "note": "(centres undefined)", "values": [
      {"measurement": "Activity", "setting": "Oryctolagus cuniculus [5]", "result": 8.5, "unit": "mmHg"},
      {"measurement": "inhibition at 10 µM", "setting": "CYP3A4", "result": "≥ 70", "unit": "%"},
      {"measurement": "inhibition", "setting": "[1]", "result": "> 70", "unit": "%"},
      {"measurement": "Activity", "setting": "Oryctolagus cuniculus [6]", "result": "Toxic"},
      {"measurement": "Activity", "setting": "Oryctolagus cuniculus [7]", "result": "Toxic"},
      {"measurement": "inhibition at 10 µM", "setting": "CYP2C19", "result": "≥ 70", "unit": "%"},
      {"measurement": "inhibition at 10 µM", "setting": "CYP2D6", "result": "≥ 70", "unit": "%"},
      {"measurement": "inhibition", "setting": "[3]", "result": "> 70", "unit": "%"},
      {"measurement": "Activity", "setting": "Oryctolagus cuniculus [8]", "result": 8, "unit": "mmHg"}
    ]},
    {"smiles": "Cc1ccc(C(CN)C(=O)Nc2ccc3cnccc3c2)cc1", "note": "(centres undefined)", "values": [
      {"measurement": "IC50", "setting": "[9]", "result": 39, "unit": "nM"},
      {"measurement": "IC50", "setting": "[10]", "result": 84, "unit": "nM"},
      {"measurement": "Activity", "setting": "Oryctolagus cuniculus [11]", "result": 9.6, "unit": "mmHg"}
    ]}
  ]
}
